Assay results as given in US12398154B2, “Azaquinazoline pan-KRas inhibitors” (Mirati Therapeutics, Inc., priority 2020, dated 2025).

How the values were obtained:
KRas G12D = KRas G12D (Homo sapiens, UniProt P01116, G12D); test: biochemical;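 note: TR-FRET displacement binding assay on KRas, read after a one-hour incubation at room temperature, IC50 fitted from percent-of-control values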
Experimental: (§1) The ability of a compound to bind to KRas was measured using a TR-FRET displacement assay. […] After a 60-minute incubation at room temperature, the reaction was measured using a BMG LABTECH CLARIO star Plus via TR-FRET. […] The POC values were fit to a 4-parameter IC50 equation and the IC50 value reported.

KRas G12V = KRas G12V (Homo sapiens, UniProt P01116, G12V); test: biochemical;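 note: KRas binding measured by TR-FRET displacement at room temperature, IC50 fitted from percent of control values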
Experimental: as §1

KRas G12R = KRas G12R (Homo sapiens, UniProt P01116, G12R); test: biochemical;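 note: TR-FRET displacement assay of compound binding to KRas, read after one hour at room temperature, potency from a four-parameter fit of percent-of-control values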
Experimental: as §1

pERK in ASPC1 cells = test: Inhibition of KRas phosphorylation of ERK (Cisbio HTRF pERK assay); conditions: Homo sapiens, ASPC1, read-out: Inhibition (HTRF IC50) of KRas-mediated Phosphorylation of ERK, AsPC-1
pERK in H727 cells = test: as above; conditions: Homo sapiens, NCI-H727, read-out: Inhibition (HTRF IC50) of KRas-mediated Phosphorylation of ERK, H727
pERK in MKN1 cells = test: as above; conditions: Homo sapiens, MKN-1, 3 h, read-out: Inhibition (HTRF IC50) of KRas-mediated Phosphorylation of ERK, MKN1
pERK in PSN1 cells = test: as above; conditions: Homo sapiens, PSN1, 3 h, read-out: Inhibition (HTRF IC50) of KRas-mediated Phosphorylation of ERK, PSN1
KRas G12C = KRas G12C (Homo sapiens, UniProt P01116, G12C); test: biochemical;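 note: binding to KRas assessed by TR-FRET displacement after one hour incubation at room temperature, potency fitted from percent-of-control values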
Experimental: as §1

KRas G12A = KRas G12A (Homo sapiens, UniProt P01116, G12A); test: biochemical;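 note: binding to KRas measured by TR-FRET displacement after one hour at room temperature, IC50 from a four-parameter fit of percent-of-control values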
Experimental: as §1

KRas G12S = KRas G12S (Homo sapiens, UniProt P01116, G12S); test: biochemical;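 note: TR-FRET displacement binding to KRas, read after one hour incubation at room temperature, IC50 from four-parameter fit of percent of control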
Experimental: as §1

KRas WT = KRas WT (Homo sapiens, UniProt P01116); test: biochemical;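 note: binding to KRas read as TR-FRET displacement after a one-hour room-temperature incubation, IC50 derived from percent-of-control values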
Chain of KRas WT (P01116 1-169 isoform P01116-2): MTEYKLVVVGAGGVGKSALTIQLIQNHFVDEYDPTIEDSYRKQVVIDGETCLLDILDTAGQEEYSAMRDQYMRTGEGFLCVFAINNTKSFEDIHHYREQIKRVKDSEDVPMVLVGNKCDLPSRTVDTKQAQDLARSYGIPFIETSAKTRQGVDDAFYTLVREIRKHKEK
Experimental: as §1

Chain of KRas G12D (P01116 1-169 isoform P01116-2 G12D): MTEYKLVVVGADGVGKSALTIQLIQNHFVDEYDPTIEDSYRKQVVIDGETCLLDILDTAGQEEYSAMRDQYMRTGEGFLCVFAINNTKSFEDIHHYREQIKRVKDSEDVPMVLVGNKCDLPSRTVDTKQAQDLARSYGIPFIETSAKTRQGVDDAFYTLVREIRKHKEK
Chain of KRas G12R (P01116 1-169 isoform P01116-2 G12R): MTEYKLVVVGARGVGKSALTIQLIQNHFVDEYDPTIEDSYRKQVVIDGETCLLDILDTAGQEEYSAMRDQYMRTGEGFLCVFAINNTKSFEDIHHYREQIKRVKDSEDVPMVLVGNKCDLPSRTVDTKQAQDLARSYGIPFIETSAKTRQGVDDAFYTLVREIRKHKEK
Chain of KRas G12V (P01116 1-169 isoform P01116-2 G12V): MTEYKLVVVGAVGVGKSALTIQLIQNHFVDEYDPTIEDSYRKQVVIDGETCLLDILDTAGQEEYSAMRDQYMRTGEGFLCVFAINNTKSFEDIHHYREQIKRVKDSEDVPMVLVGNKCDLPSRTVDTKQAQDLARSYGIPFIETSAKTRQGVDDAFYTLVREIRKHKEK
Chain of KRas G12C (P01116 1-169 isoform P01116-2 G12C): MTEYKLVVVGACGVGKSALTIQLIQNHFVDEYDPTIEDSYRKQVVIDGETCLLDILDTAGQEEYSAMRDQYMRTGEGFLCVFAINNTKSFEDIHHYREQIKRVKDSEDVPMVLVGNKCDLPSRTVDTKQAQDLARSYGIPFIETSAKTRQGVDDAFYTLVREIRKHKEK
Chain of KRas G12A (P01116 1-169 isoform P01116-2 G12A): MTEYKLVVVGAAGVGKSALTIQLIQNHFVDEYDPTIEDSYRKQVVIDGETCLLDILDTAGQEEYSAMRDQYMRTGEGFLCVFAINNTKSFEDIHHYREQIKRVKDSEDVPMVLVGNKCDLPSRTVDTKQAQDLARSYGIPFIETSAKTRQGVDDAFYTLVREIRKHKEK
Chain of KRas G12S (P01116 1-169 isoform P01116-2 G12S): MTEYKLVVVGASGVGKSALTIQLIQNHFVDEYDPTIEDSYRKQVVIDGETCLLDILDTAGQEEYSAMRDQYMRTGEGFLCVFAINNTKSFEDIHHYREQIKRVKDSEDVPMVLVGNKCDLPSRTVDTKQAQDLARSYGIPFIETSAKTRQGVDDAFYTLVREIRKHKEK

Cc1cc2[nH]ncc2c(-c2ncc3c(N4CCC[C@@](C)(O)C4)nc(OCC4(CN(C)C)CC4)nc3c2F)c1C [Example 520, (3R)-1-(7-(5,6-dimethyl-1H-indazol-4-yl)-2-((1-((dimethylamino)methyl)cyclopropyl)methoxy)-8-fluoropyrido[4,3-d]pyrimidin-4-yl)-3-methylpiperidin-3-ol]
IC50 (KRas G12D): 692 nM
IC50 (KRas G12V): 614 nM
IC50 (KRas G12R): 1750 nM
IC50 (pERK in ASPC1 cells): ≥ 10000 nM
IC50 (pERK in H727 cells): ≥ 10000 nM

CCc1c(F)ccc2cc(O)cc(-c3ncc4c(N5CCC6C(=O)NC(=O)C6C5)nc(OC[C@@]56CCCN5C[C@H](F)C6)nc4c3F)c12 (stereo partly drawn) [Example 487, 5-(7-(8-ethyl-7-fluoro-3-hydroxynaphthalen-1-yl)-8-fluoro-2-(((2R,7aS)-2-fluorohexahydro-1H-pyrrolizin-7a-yl)methoxy)pyrido[4,3-d]pyrimidin-4-yl)hexahydro-1H-pyrrolo[3,4-c]pyridine-1,3(2H)-dione]
IC50 (KRas G12D): 14 nM
IC50 (KRas G12V): 5 nM
IC50 (KRas G12R): 6 nM
IC50 (pERK in ASPC1 cells): ≥ 10000 nM
IC50 (pERK in H727 cells): 4990 nM

Cc1cc2[nH]ncc2c(-c2ncc3c(N4CCOCC(C)(O)C4)nc(OCC45CCCN4CCC5)nc3c2F)c1C (stereo not drawn) [Example 522, 4-(7-(5,6-dimethyl-1H-indazol-4-yl)-8-fluoro-2-((hexahydro-1H-pyrrolizin-7a-yl)methoxy)pyrido[4,3-d]pyrimidin-4-yl)-6-methyl-1,4-oxazepan-6-ol]
IC50 (KRas G12D): 292 nM
IC50 (KRas G12V): 390 nM
IC50 (KRas G12R): 759 nM
IC50 (pERK in ASPC1 cells): ≥ 10000 nM
IC50 (pERK in H727 cells): ≥ 10000 nM

CCc1c(F)ccc2cc(O)cc(-c3ncc4c(N(C)CC5CC(=O)N5)nc(OC[C@@]56CCCN5C[C@H](F)C6)nc4c3F)c12 (stereo partly drawn) [Example 384]
IC50 (KRas G12D): 38 nM
IC50 (KRas G12V): 12 nM
IC50 (KRas G12R): 32 nM
IC50 (pERK in ASPC1 cells): ≥ 10000 nM
IC50 (pERK in H727 cells): ≥ 10000 nM

Cc1cc2[nH]ncc2c(-c2ncc3c(N4CCCC5(CC(=O)N5)C4)nc(OCC45CCCN4CCC5)nc3c2F)c1C (stereo not drawn) [Example 523, 6-(7-(5,6-dimethyl-1H-indazol-4-yl)-8-fluoro-2-((hexahydro-1H-pyrrolizin-7a-yl)methoxy)pyrido[4,3-d]pyrimidin-4-yl)-1,6-diazaspiro[3.5]nonan-2-one]
IC50 (KRas G12D): 166 nM
IC50 (KRas G12V): 129 nM
IC50 (KRas G12R): 217 nM
IC50 (pERK in ASPC1 cells): ≥ 10000 nM
IC50 (pERK in H727 cells): ≥ 10000 nM

O=C1NC(=O)C2CN(c3nc(OCC45CCCN4CCC5)nc4c(F)c(-c5cc(O)cc(Cl)c5C5CC5)ncc34)CC12 (stereo not drawn) [Example 519, 5-(7-(3-chloro-2-cyclopropyl-5-hydroxyphenyl)-8-fluoro-2-((tetrahydro-1H-pyrrolizin-7a(5H)-yl)methoxy)pyrido[4,3-d]pyrimidin-4-yl)tetrahydropyrrolo[3,4-c]pyrrole-1,3(2H,3aH)-dione]
IC50 (KRas G12D): ≤ 2 nM
IC50 (KRas G12V): ≤ 2 nM
IC50 (KRas G12R): ≤ 2 nM
IC50 (pERK in ASPC1 cells): ≥ 10000 nM
IC50 (pERK in H727 cells): ≥ 10000 nM

Cc1cc2[nH]ncc2c(-c2ncc3c(N4CCCC5(CNS(=O)(=O)N5)C4)nc(OCC45CCCN4CCC5)nc3c2F)c1C (stereo not drawn) [Example 521, 7-(7-(5,6-dimethyl-1H-indazol-4-yl)-8-fluoro-2-((hexahydro-1H-pyrrolizin-7a-yl)methoxy)pyrido[4,3-d]pyrimidin-4-yl)-2-thia-1,3,7-triazaspiro[4.5]decane 2,2-dioxide]
IC50 (KRas G12D): 4 nM
IC50 (KRas G12V): ≤ 2 nM
IC50 (KRas G12R): 3 nM
IC50 (pERK in ASPC1 cells): ≥ 10000 nM
IC50 (pERK in H727 cells): ≥ 10000 nM

O=C1CC2(CCCN(c3nc(OCC45CCCN4CCC5)nc4c(F)c(-c5cc(O)cc(Cl)c5C5CC5)ncc34)C2)N1 (stereo not drawn) [Example 518, 6-(7-(3-chloro-2-cyclopropyl-5-hydroxyphenyl)-8-fluoro-2-((tetrahydro-1H-pyrrolizin-7a(5H)-yl)methoxy)pyrido[4,3-d]pyrimidin-4-yl)-1,6-diazaspiro[3.5]nonan-2-one]
IC50 (KRas G12D): ≤ 2 nM
IC50 (KRas G12V): ≤ 2 nM
IC50 (KRas G12R): ≤ 2 nM
IC50 (pERK in ASPC1 cells): ≥ 10000 nM
IC50 (pERK in H727 cells): 9210 nM

O=S1(=O)NC[C@@]2(CCCN(c3nc(OC[C@@]45CCCN4C[C@H](F)C5)nc4c(F)c(-c5cc(O)cc6ccc(F)c(Cl)c56)ncc34)C2)N1 [Example 516, (S)-7-(7-(8-chloro-7-fluoro-3-hydroxynaphthalen-1-yl)-8-fluoro-2-(((2R,7aS)-2-fluorotetrahydro-1H-pyrrolizin-7a(5H)-yl)methoxy)pyrido[4,3-d]pyrimidin-4-yl)-2-thia-1,3,7-triazaspiro [4.5]decane2,2-dioxide]
IC50 (pERK in ASPC1 cells): 9320 nM
IC50 (pERK in H727 cells): 5690 nM

CCc1c(F)ccc2cc(O)cc(-c3ncc4c(NCC5CNC5=O)nc(OC[C@@]56CCCN5C[C@H](F)C6)nc4c3F)c12 (stereo partly drawn) [Example 485, 3-(((7-(8-ethyl-7-fluoro-3-hydroxynaphthalen-1-yl)-8-fluoro-2-(((2R,7aS)-2-fluorotetrahydro-1H-pyrrolizin-7a(5H)-yl)methoxy)pyrido[4,3-d]pyrimidin-4-yl)amino)methyl)azetidin-2-one]
IC50 (KRas G12D): 9 nM
IC50 (KRas G12V): ≤ 2 nM
IC50 (KRas G12R): 3 nM
IC50 (pERK in ASPC1 cells): 6620 nM
IC50 (pERK in H727 cells): 1220 nM

CCc1c(F)ccc2cc(O)cc(-c3ncc4c(N5C[C@H]6C[C@@H](C5)[C@H](CO)[C@H]6O)nc(OC[C@@]56CCCN5C[C@H](F)C6)nc4c3F)c12 [Example 486, (1 R,5R,6S,7R)-3-(7-(8-ethyl-7-fluoro-3-hydroxynaphthalen-1-yl)-8-fluoro-2-(((2R,7aS)-2-fluorohexahydro-1H-pyrrolizin-7a-yl)methoxy)pyrido[4,3-d]pyrimidin-4-yl)-7-(hydroxymethyl)-3-azabicyclo[3.2.1]octan-6-ol]
IC50 (KRas G12D): 336 nM
IC50 (KRas G12V): 170 nM
IC50 (KRas G12R): 186 nM
IC50 (pERK in ASPC1 cells): ≥ 10000 nM
IC50 (pERK in H727 cells): ≥ 10000 nM

CCc1c(F)ccc2cc(O)cc(-c3ncc4c(N5CCCC6(CCS(=N)(=O)C6)C5)nc(OC[C@@]56CCCN5C[C@H](F)C6)nc4c3F)c12 (stereo partly drawn) [Example 508, 7-(7-(8-ethyl-7-fluoro-3-hydroxynaphthalen-1-yl)-8-fluoro-2-(((2R,7aS)-2-fluorohexahydro-1H-pyrrolizin-7a-yl)methoxy)pyrido[4,3-d]pyrimidin-4-yl)-2-imino-2-thia-7-azaspiro[4.5]decane 2-oxide]
IC50 (KRas G12D): 5 nM
IC50 (KRas G12V): 12 nM
IC50 (KRas G12R): 14 nM
IC50 (pERK in ASPC1 cells): 1550 nM
IC50 (pERK in H727 cells): 2190 nM

CCc1c(F)ccc2cc(O)cc(-c3ncc4c(N(C)CC5CNS(=O)(=O)N5)nc(OC[C@@]56CCCN5C[C@H](F)C6)nc4c3F)c12 (stereo partly drawn) [Example 495]
IC50 (KRas G12D): 8 nM
IC50 (KRas G12V): ≤ 2 nM
IC50 (KRas G12R): 7 nM
IC50 (pERK in ASPC1 cells): 1350 nM
IC50 (pERK in H727 cells): 1820 nM

CCc1c(F)ccc2cc(O)cc(-c3ncc4c(N5C[C@H](CO)OC[C@](C)(O)C5)nc(OC[C@@]56CCCN5C[C@H](F)C6)nc4c3F)c12 [Example 497, (2R,6R)-4-(7-(8-ethyl-7-fluoro-3-hydroxynaphthalen-1-yl)-8-fluoro-2-(((2R,7aS)-2-fluorohexahydro-1H-pyrrolizin-7a-yl)methoxy)pyrido[4,3-d]pyrimidin-4-yl)-2-(hydroxymethyl)-6-methyl-1,4-oxazepan-6-ol]
IC50 (pERK in MKN1 cells): 43 nM
IC50 (pERK in PSN1 cells): ≥ 10000 nM
IC50 (pERK in ASPC1 cells): 987 nM
IC50 (pERK in H727 cells): 503 nM

Cc1cc2[nH]ncc2c(-c2ncc3c(N4CCCC(C)(O)C4)nc(OCC45CCCN4CCC5)nc3c2F)c1C (stereo not drawn) [Example 25, 1-(7-(5,6-dimethyl-1H-indazol-4-yl)-8-fluoro-2-((hexahydro-1H-pyrrolizin-7a-yl)methoxy)pyrido[4,3-d]pyrimidin-4-yl)-3-methylpiperidin-3-ol]
IC50 (KRas G12D): 433 nM
IC50 (KRas G12V): 633 nM
IC50 (KRas G12R): 1310 nM
IC50 (KRas G12C): 679 nM
IC50 (pERK in ASPC1 cells): ≥ 10000 nM
IC50 (pERK in H727 cells): ≥ 10000 nM

Cc1cc2[nH]ncc2c(-c2ncc3c(N4CCCC5(CNC(=O)C5)C4)nc(OCC45CCCN4CCC5)nc3c2F)c1C (stereo not drawn) [Example 26, 7-(7-(5,6-dimethyl-1H-indazol-4-yl)-8-fluoro-2-((hexahydro-1H-pyrrolizin-7a-yl)methoxy)pyrido[4,3-d]pyrimidin-4-yl)-2,7-diazaspiro[4.5]decan-3-one]
IC50 (KRas G12D): 845 nM
IC50 (KRas G12V): 1260 nM
IC50 (KRas G12R): 2320 nM
IC50 (pERK in ASPC1 cells): ≥ 10000 nM
IC50 (pERK in H727 cells): ≥ 10000 nM

Cc1cc(N)nc(-c2ncc3c(N4CCC[C@@](C)(O)C4)nc(OC[C@@H]4CCCN4C)nc3c2F)c1C(F)(F)F [Example 435, (R)-1-(7-(6-amino-4-methyl-3-(trifluoromethyl)pyridin-2-yl)-8-fluoro-2-(((S)-1-methylpyrrolidin-2-yl)methoxy)pyrido[4,3-d]pyrimidin-4-yl)-3-methylpiperidin-3-ol]
IC50 (KRas G12D): 3890 nM
IC50 (KRas G12V): 5440 nM
IC50 (KRas G12R): 6860 nM
IC50 (KRas G12A): 4910 nM
IC50 (KRas G12S): 5640 nM
IC50 (KRas G12C): 4840 nM
IC50 (KRas WT): 4450 nM
